Laboratory results published in ChEMBL document CHEMBL1132706 (J Med Chem, 1999).
Values belong to the molecule of their own block, whether it stands above or below them.

What was measured:
[1] = molecular target: T1, Human immunodeficiency virus type 1 integrase (Human immunodeficiency virus 1, UniProt Q7ZJM1)
Description: Inhibition of HIV-1 integrase by radiolabeled oligonucleotide-based assay integration

[2] = molecular target: T1, Human immunodeficiency virus type 1 integrase; remark: listed apart in the source
Description: Compound was evaluated for the inhibitory concentration against HIV-1 integrase by radiolabeled oligonucleotide-based assay 3''-processing

CEM-SS [3] = test: Compound was evaluated for the cytoprotection of CEM-SS cells by XTT cytoprotection assay through the NCI AIDS Screen; Not reached due to cytotoxicity; format: functional, cell-based, Homo sapiens
CEM-SS [4] = test: Compound was evaluated for the cytoprotection by XTT cytoprotection assay through the NCI AIDS Screen; format: functional, cell-based; conditions: Homo sapiens
CEM-SS [5] = test: Compound was evaluated for the effect of Order of Addition on Cytoprotection against HIV1-RF at dilution 100, Add at infection; format: functional, Homo sapiens
CEM-SS [6] = test: Compound was evaluated for the effect of Order of Addition on Cytoprotection against HIV1-RF at dilution 100, Pretreat and add 1 uM; format: functional, Homo sapiens
CEM-SS [7] = test: Compound was evaluated for the effect of Order of Addition on Cytoprotection against HIV1-RF at dilution 100, Pretreat and add 10 uM; format: functional, Homo sapiens
CEM-SS [8] = test: Compound was evaluated for the effect of Order of Addition on Cytoprotection against HIV1-RF at dilution 100, Pretreat with 100 uM; format: functional, Homo sapiens
CEM-SS [9] = test: Compound was evaluated for the effect of Order of Addition on Cytoprotection against HIV1-RF at dilution 1000, Add at infection; format: functional, Homo sapiens
CEM-SS [10] = test: Compound was evaluated for the effect of Order of Addition on Cytoprotection against HIV1-RF at dilution 1000, Pretreat and add 1 uM; format: functional, Homo sapiens
CEM-SS [11] = test: Compound was evaluated for the effect of Order of Addition on Cytoprotection against HIV1-RF at dilution 1000, Pretreat and add 10 uM; format: functional, Homo sapiens
CEM-SS [12] = test: Compound was evaluated for the effect of Order of Addition on Cytoprotection against HIV1-RF at dilution 1000, Pretreat with 100 uM; format: functional, Homo sapiens
CEM-SS [13] = test: Compound was evaluated for the effect of Order of Addition on Cytoprotection against HIV1-RF at dilution 333, Add at infection; format: functional, Homo sapiens
CEM-SS [14] = test: Compound was evaluated for the effect of Order of Addition on Cytoprotection against HIV1-RF at dilution 333, Pretreat and add 10 uM; format: functional, Homo sapiens
CEM-SS [15] = test: Compound was evaluated for the effect of Order of Addition on Cytoprotection against HIV1-RF at dilution 333,Pretreat and add 1 uM; format: functional, Homo sapiens
CEM-SS [16] = test: Concentration of compound required to protect 50% of CEM-SS cells against retroviral cytopathic effects of HIV-RF on 3rd day at dil 1:100; format: functional, cell-based; conditions: Homo sapiens
CEM-SS [17] = test: Concentration of compound required to protect 50% of CEM-SS cells against retroviral cytopathic effects of HIV-RF on 3rd day at dil 1:200; format: functional, cell-based; conditions: Homo sapiens
CEM-SS [18] = test: Concentration of compound required to protect 50% of CEM-SS cells against retroviral cytopathic effects of HIV-RF on 3rd day at dil 1:50; format: functional, cell-based; conditions: Homo sapiens
CEM-SS [19] = test: Concentration of compound required to protect 50% of CEM-SS cells against retroviral cytopathic effects of HIV-RF on 6th day at dil 1:100; format: functional, cell-based; conditions: Homo sapiens
CEM-SS [20] = test: Concentration of compound required to protect 50% of CEM-SS cells against retroviral cytopathic effects of HIV-RF on 6th day at dil 1:200; format: functional, cell-based; conditions: Homo sapiens
CEM-SS [21] = test: Concentration of compound required to protect 50% of CEM-SS cells against retroviral cytopathic effects of HIV-RF on 6th day at dil 1:400; format: functional, cell-based; conditions: Homo sapiens
CEM-SS [22] = test: Concentration of compound required to protect 50% of CEM-SS cells against retroviral cytopathic effects of HIV-RF on 6th day at dil 1:50; format: functional, cell-based; conditions: Homo sapiens
CEM-SS [23] = test: Concentration of compound required to protect 50% of CEM-SS cells against retroviral cytopathic effects of HIV-RF on 9th day at dil 1:200; format: functional, cell-based; conditions: Homo sapiens
CEM-SS [24] = test: Concentration of compound required to protect 50% of CEM-SS cells against retroviral cytopathic effects of HIV-RF on 9th day at dil 1:400; format: functional, cell-based; conditions: Homo sapiens
CEM-SS [25] = test: Concentration of compound required to protect 50% of CEM-SS cells against retroviral cytopathic effects of HIV-RF on 9th day at dil 1:50; format: functional, cell-based; conditions: Homo sapiens
[26] = Compound was evaluated for the relative inhibition of Viral infection in MAGI cells at concentration 100 mM, using assay 1; format: functional, Homo sapiens
[27] = Compound was evaluated for the relative inhibition of Viral infection in MAGI cells at concentration 10 mM, using assay 1; format: functional, Homo sapiens
[28] = Compound was evaluated for the relative inhibition of Viral infection in MAGI cells at concentration 10mM, using assay 2; format: functional, Homo sapiens
[29] = Compound was evaluated for the relative inhibition of Viral infection in MAGI cells at concentration 10 mM, using assay 3; format: functional, Homo sapiens
[30] = Compound was evaluated for the relative inhibition of Viral infection in MAGI cells at concentration 1 mM, using assay 1; format: functional, Homo sapiens
MT4 [31] = test: Concentration of compound required to protect 50% of MT-4 cells against retroviral cytopathic effects of HIV-2 (ROD); format: functional, cell-based; conditions: Homo sapiens
MT4 [32] = test: Concentration of compound required to reduce MT-4 cell viability by 50%; format: functional, cell-based; conditions: Homo sapiens
CEM-SS [33] = test: Concentration of compound required to protect 50% of CEM-SS cells against retroviral cytopathic effects of HIV-RF on 9th day at dil 1:100; format: functional, cell-based; conditions: Homo sapiens
CEM-SS [34] = test: Compound was evaluated for the cytoprotection of CEM-SS cells by XTT cytoprotection assay through the NCI AIDS Screen; format: functional, cell-based; conditions: Homo sapiens
MT4 [35] = test: Concentration of compound required to protect 50% of MT-4 cells against retroviral cytopathic effects of HIV-1 ([…]); format: functional, cell-based; conditions: Homo sapiens
[36] = Compound was evaluated for the relative Viral infection in MAGI cells at concentration 100 mM, using assay 2
[37] = Compound was evaluated for the relative inhibition of Viral infection in MAGI cells at concentration 0.1 uM, using assay 3
CEM-SS [38] = test: Compound was evaluated for the effect of Order of Addition on Cytoprotection against HIV1-RF at dilution 333, Pretreat with 100 uM

T1 sequence (Q7ZJM1 whole entry): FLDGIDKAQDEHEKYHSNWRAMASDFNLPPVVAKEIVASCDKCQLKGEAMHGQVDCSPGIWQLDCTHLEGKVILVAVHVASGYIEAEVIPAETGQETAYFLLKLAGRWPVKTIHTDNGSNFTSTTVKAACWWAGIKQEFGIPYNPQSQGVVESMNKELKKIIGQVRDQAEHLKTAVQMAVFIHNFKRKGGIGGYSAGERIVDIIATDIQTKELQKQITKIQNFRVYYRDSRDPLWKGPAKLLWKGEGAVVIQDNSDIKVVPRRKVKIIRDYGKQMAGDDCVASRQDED

IC50 [1]: 10 µM | IC50 [2]: 10.9 µM
Compound: COC(=O)[C@@H](CNC(=O)/C=C/c1ccc(OC(C)=O)c(OC(C)=O)c1)NC(=O)/C=C/c1ccc(OC(C)=O)c(OC(C)=O)c1

IC50 [1]: 2.8 µM | IC50 [2]: 2.1 µM
Compound: CC(=O)Oc1ccc(/C=C/C(=O)OCC(OC(=O)/C=C/c2ccc(OC(C)=O)c(OC(C)=O)c2)C(=O)O)cc1OC(C)=O (configuration not stated)

IC50 [1]: > 1000 µM | IC50 [2]: > 1000 µM
Compound: COc1ccc(/C=C/C(=O)NC[C@@H](NC(=O)/C=C/c2ccc(OC)c(OC)c2)C(=O)O)cc1OC

IC50 [1]: > 333 µM | IC50 [2]: > 333 µM
Compound: COC(=O)C(COC(=O)/C=C/c1ccc(OC(C)=O)c(OC(C)=O)c1)NC(C)=O (configuration not stated)

IC50 [1]: 0.4 µM | IC50 [2]: 0.4 µM
Compound: O=C(/C=C/c1ccc(O)c(O)c1)OCCOC(=O)/C=C/c1ccc(O)c(O)c1
EC50 (CEM-SS [3]): Not reached | IC50 (CEM-SS [4]): 10 µM

IC50 [1]: 4.1 µM | IC50 [2]: 4.1 µM
Compound: CC(=O)Oc1ccc(/C=C/C(=O)NCC(NC(=O)/C=C/c2ccc(OC(C)=O)c(OC(C)=O)c2)C(=O)O)cc1OC(C)=O (configuration not stated)

IC50 [1]: 3.2 µM | IC50 [2]: 2.5 µM
Compound: COC(=O)C(COC(=O)/C=C/c1ccc(OC(C)=O)c(OC(C)=O)c1)NC(=O)/C=C/c1ccc(OC(C)=O)c(OC(C)=O)c1 (configuration not stated)

EC50 (CEM-SS [16]): > 50 µM | EC50 (CEM-SS [17]): > 50 µM | EC50 (CEM-SS [18]): > 50 µM | EC50 (CEM-SS [19]): > 50 µM | EC50 (CEM-SS [20]): 22.6 µM | EC50 (CEM-SS [21]): 19.6 µM | EC50 (CEM-SS [22]): > 50 µM | EC50 (CEM-SS [23]): > 50 µM | EC50 (CEM-SS [24]): 29.4 µM | EC50 (CEM-SS [25]): > 50 µM | EC50 (CEM-SS [33]): > 50 µM | IC50 [1]: 4.6 µM | IC50 [2]: 33.3 µM
Compound: CC(=O)Oc1ccc(/C=C/C(=O)O[C@H](C(=O)O)[C@H](OC(=O)/C=C/c2ccc(OC(C)=O)c(OC(C)=O)c2)C(=O)O)cc1OC(C)=O
Control (CEM-SS [5]): 141% | Control (CEM-SS [6]): 100% | Control (CEM-SS [7]): 149% | Control (CEM-SS [8]): 120% | Control (CEM-SS [9]): 60% | Control (CEM-SS [10]): 17% | Control (CEM-SS [11]): 38% | Control (CEM-SS [12]): 51% | Control (CEM-SS [13]): 81% | Control (CEM-SS [14]): 39% | Control (CEM-SS [15]): 57% | relative infection [26]: 6% | relative infection [27]: 88% | relative infection [28]: 76% | relative infection [29]: 55% | relative infection [30]: 83% | EC50 (MT4 [31]): 5.1 µM | IC50 (MT4 [32]): 60 µM | EC50 (CEM-SS [34]): 21 µM | IC50 (CEM-SS [34]): 23 µM | EC50 (MT4 [35]): 3.9 µM | relative infection [36]: 5% | relative infection [37]: 91% | Control (CEM-SS [38]): 163%

IC50 [1]: 111 µM | IC50 [2]: 333 µM
Compound: CC(=O)NC(COC(=O)/C=C/c1ccc(O)c(O)c1)C(=O)O (configuration not stated)

IC50 [1]: > 100 µM | IC50 [2]: > 100 µM
Compound: CC(=O)Oc1ccc(/C=C/C(=O)OCCOC(=O)/C=C/c2ccc(OC(C)=O)c(OC(C)=O)c2)cc1OC(C)=O
IC50 (CEM-SS [34]): 6.7 µM

IC50 [1]: > 1000 µM | IC50 [2]: > 1000 µM
Compound: COC(=O)[C@@H](CNC(=O)/C=C/c1ccc(OC)c(OC)c1)NC(=O)/C=C/c1ccc(OC)c(OC)c1

IC50 [1]: 1.7 µM | IC50 [2]: 4.2 µM
Compound: O=C(/C=C/c1ccc(O)c(O)c1)OCC(OC(=O)/C=C/c1ccc(O)c(O)c1)C(=O)O (configuration not stated)
